# From US8178506B2, “Oligomeric compounds and compositions for use in modulation of small non-coding RNAs” (Regulus Therapeutics Inc., priority 2003, dated 2012)
# Entries after “also recorded” stand apart in the source; their conditions may differ. In the oligonucleotide strings, read from the 5' end, every base follows the letter of its sugar. An asterisk marks phosphorothioate; unmarked linkages are phosphodiester. Other units and linkages are bracketed, terminal groups are in braces. A string of capitals states the bases alone. e = 2'-O-(2-methoxyethyl) (MOE); [5mC] = 5-methylcytosine; d = 2'-deoxy (DNA)
# Key:
# Type in all cases: cell-based, human
# HeLa cells = assay: Cell cycle assay in HeLa cells; settings: HeLa cells, 150 nM oligomeric compound; for % cells aneuploid / % cells in cell cycle phase G1 / % cells in cell cycle phase G2/M / % cells in cell cycle phase S / % cells in cell cycle phase subG1: 24 hours, relative to untreated control (UTC = 100); for % cells in cell cycle phase: G1 / % cells in cell cycle phase: G2/M / % cells in cell cycle phase: S / % cells in cell cycle phase: aneuploid / % cells in cell cycle phase: subG1: 48 hours after treatment, relative to untreated control (UTC=100)
# T47D cells = assay: Cell cycle assay in T47D cells; settings: 150 nM, 48 hours, relative to untreated control
# Description: BJ cells were routinely cultured in MEM high glucose with 2 mM L-glutamine and Earle's BSS adjusted to contain 1.5 g/L sodium bicarbonate and supplemented with 10% fetal bovine serum, 0.1 mM non-essential amino acids and 1.0 mM sodium pyruvate (all media and supplements from Invitrogen Life Technologies, Carlsbad, Calif.). B16-F10 cells were routinely cultured in DMEM high glucose (Invitrogen Life Technologies, Carlsbad, Calif.) supplemented with 10% fetal bovine serum (Invitrogen Life Technologies, Carlsbad, Calif.). T47D cells were cultured in DMEM High glucose media (Invitrogen Life Technologies, Carlsbad, Calif.) supplemented with 10% fetal bovine serum. […] Cells were plated on collagen-coated 24-well plates (Falcon-Primaria #3047, BD Biosciences, Bedford, Mass.) at approximately 50,000 cells per well and allowed to attach to wells overnight.
# (§1) In further studies, additional cell lines were treated with oligomeric compounds targeted against miRNAs to assess the effects of each oligomeric compound on cell cycling. BJ, B16, T47D, and HeLa cells were cultured and transfected as described above. […] T47Dp53 cells are T47D cells that have been transfected with and selected for maintenance of a plasmid that expresses a wildtype copy of the p53 gene (for example, pCMV-p53; Clontech, Palo Alto, Calif.), using standard laboratory procedures. BJ cells were treated with 200 nM of each oligomeric compound, and T47D, T47Dp53, HeLa, and B16 cells were treated with 150 nM of each oligomeric compound. The human foreskin fibroblast BJ cell line represents a non-cancer cell line, while HeLa, T47D, T47Dp53 cells and the mouse melanoma cell line B16-F10 represent cancerous cell lines. For comparison, oligomeric compounds ISIS 183891 (SEQ ID NO: 847) and ISIS 285717 ([…]; herein incorporated as SEQ ID NO: 857), both targeting the kinesin-like 1/Eg5 mRNA, involved in cell cycling, were used as positive controls. The random-mer ISIS 29848 was used as a negative control. Additionally, the oligomeric compounds ISIS Number 25690 ([…]; herein incorporated as SEQ ID NO: 858) and ISIS Number 25691 ([…]; herein incorporated as SEQ ID NO: 859), targeted to nucleotides 3051-3070 and 3085-3104, respectively, of the mRNA encoding the Drosha RNase III (GenBank Accession NM_013235.2, incorporated herein as SEQ ID NO: 860) were also tested. ISIS Number 25690 and ISIS Number 25691 are 5-10-52′-MOE gapmer compounds, 20 nucleotides in length, with phosphorothioate internucleoside linkages throughout the oligomeric compound. All cytidine residues are 5-methylcytidines. Transfections were performed using the methods described herein. Cells were prepared for flow cytometry 48-hours after oligonucleotide treatment. Results of these studies are shown in Table 35, where data are expressed as percentage of cells in each phase relative to the untreated control cells in that phase.
# A549 cells = assay: Cell cycle assay in A549 cells; settings: A549 cells, 24 hours, relative to the untreated control cells in that phase
# Description: In accordance with the present invention, certain oligomeric compounds targeting miRNAs were selected for dose response studies. Using the cell cycle assay described above, the cell cycle profiles of HeLa or A549 cells treated with varying concentrations of oligomeric compounds of the present invention were assessed.
# Concomittent decreases in the percentage of cells in G1-phase of the cell cycle and increases in the percentage of hypodiploid (subG1) cells were also observed.
# In a further study, A549 cells were treated with 25-, 50-, 100- or 150 nM of the oligomeric compounds ISIS Numbers 338637 (SEQ ID NO: 464) targeted against mir-96, and ISIS 338769 (SEQ ID NO: 596) targeted against mir-130b, ISIS 338836 (SEQ ID NO: 663) targeted against mir-23a, and ISIS 340350 (SEQ ID NO: 855) targeted against mir-95 (Mourelatos). Cells treated with increasing concentrations of oligomeric compounds were compared to untreated cells, to assess the dose-responsiveness of the observed delay or arrest. The random-mer ISIS 29848 was used as a negative control. Cells were prepared for flow cytometry 24-hours after oligonucleotide treatment. Results of these dose response studies are shown in Table 34, where data are expressed as percentage of cells in each phase relative to the untreated control cells in that phase.
# T47Dp53 cells = assay: Cell cycle assay in T47Dp53 cells; settings: 150 nM, 48 hours, relative to untreated control
# Description: as §1
# mir-21 pri-miRNA = mir-21 pri-miRNA expression in HeLa cells (real-time RT-PCR); settings: for levels of the mir-21 pri-miRNA molecule: HeLa, 100 nM
# Description: In one embodiment, the expression of mir-21 (noted to be expressed at high levels in HeLa cells) was assessed in cells treated with oligomeric compounds. Using the transfection methods previously described, HeLa cells were treated with 100 nM of the uniform 2′-MOE oligomeric compound ISIS Number 327917 (SEQ ID NO: 335) targeting the mir-21 mature miRNA. Total RNA was isolated by lysing cells in 1 mL TRIZOL™ (Invitrogen) using the manufacturer's recommended protocols. […] Real-time RT-PCR analysis was also performed on HeLa cells treated with ISIS 327917 using a primer/probe set specific for the mir-21 pri-miRNA molecule [forward primer=ISIS 339332 ([…]; herein incorporated as SEQ ID NO.: 911), reverse primer-ISIS 339333 (TCGACTGGTGTTGCCATGA; herein incorporated as SEQ ID NO.: 912), and probe=ISIS 339334 ([…]; herein incorporated as SEQ ID NO.: 913)]. Total RNA was quantified using RiboGreen™ RNA quantification reagent (Molecular Probes, Inc. Eugene, Oreg.), expression levels observed for the target were normalized to 5.8S rRNA, and values were expressed relative to an untreated control (UTC).
# Using the real-time RT-PCR methods, the expression levels of the mir-21 pri-miRNA were compared in HeLa cells treated with this nested series of uniform 2′-MOE oligomeric compounds, targeting and spanning the entire length of the mir-21 pri-miRNA. ISIS Number 358768 (SEQ ID NO: 918) targets a region flanking the predicted 5′ Drosha cleavage site in the mir-21 pri-miRNA. ISIS Number 358777 (SEQ ID NO: 927) targets a region spanning the 3′ Drosha cleavage site in the mir-21 pri-miRNA. ISIS 358779 (SEQ ID NO: 929) targets a region flanking the predicted 3′ Drosha cleavage site in the mir-21 pri-miRNA. Additionally, oligomeric compounds ISIS 327917 (SEQ ID NO: 335), a uniform 2′-MOE compound targeting the mature mir-21 miRNA, and ISIS 345382 ([…]; SEQ ID NO: 335), a 5-10-7 phosphorothioate 2′-MOE gapmer targeting mir-21, were tested for comparison. Oligomeric compound ISIS 327863 ([…]; herein incorporated as SEQ ID NO: 936), a phosphorothioate 5-10-52′-MOE gapmer, was used as scrambled control. […] Total RNA was isolated by lysing cells in 1 mL TRIZOL™ (Invitrogen) using the manufacturer's recommended protocols. real-time RT-PCR analysis was performed using the primer/probe set specific for the mir-21 pri-miRNA molecule [forward primer=ISIS 339332 (SEQ ID NO.: 911), reverse primer-ISIS 339333 (SEQ ID NO.: 912), and probe=ISIS 339334 (SEQ ID NO.: 913)]. Total RNA was quantified using RiboGreen™ RNA quantification reagent (Molecular Probes, Inc. Eugene, Oreg.), expression levels observed for each target were normalized to 5.8S rRNA, and values were expressed relative to the untreated control (UTC). Effects on expression of the mir-21 pri-miRNA molecule resulting from treatment of HeLa cells with these uniform 2′-MOE oligomeric compounds is expressed as a percentage of RNA levels in untreated control cells.
substance,measurement,setting,value
328687 (eG*e[5mC]*eT*eT*e[5mC]*d[5mC]*d[5mC]*dA*dG*d[5mC]*dG*dG*d[5mC]*d[5mC]*dT*eA*eT*eA*eG*eT; antisense) [compound 328687],% cells aneuploid,HeLa cells,149%
same,% cells in cell cycle phase G1,HeLa cells,80%
same,% cells in cell cycle phase G2/M,HeLa cells,131%
same,% cells in cell cycle phase S,HeLa cells,98%
same,% cells in cell cycle phase subG1,HeLa cells,231%
same,% cells in cell cycle phase: G1,HeLa cells,55%
same,% cells in cell cycle phase: G2/M,HeLa cells,131%
same,% cells in cell cycle phase: S,HeLa cells,174%
same,% cells in cell cycle phase: aneuploid,HeLa cells,171%
same,% cells in cell cycle phase: subG1,HeLa cells,1119%
same,% cells in cell cycle phase G1,T47D cells,101%
same,% cells in cell cycle phase G2/M,T47D cells,115%
same,% cells in cell cycle phase S,T47D cells,92%
same,% cells in cell cycle phase aneuploid,T47D cells,169%
same,% cells in cell cycle phase subG1,T47D cells,142%
"338769 (antisense GCTTCCCAGCGGCCTATAGT; all 2'-MOE, all phosphorothioate, methylation of C not given here) [compound 338769]",% cells aneuploid,HeLa cells,133%
same,% cells in cell cycle phase G1,HeLa cells,171%
same,% cells in cell cycle phase G2/M,HeLa cells,103%
same,% cells in cell cycle phase S,HeLa cells,61%
same,% cells in cell cycle phase subG1,HeLa cells,188%
same,% cells in cell cycle phase: G1,HeLa cells,76%
same,% cells in cell cycle phase: G2/M,HeLa cells,149%
same,% cells in cell cycle phase: S,HeLa cells,116%
same,% cells in cell cycle phase: aneuploid,HeLa cells,194%
same,% cells in cell cycle phase: subG1,HeLa cells,482%
same,% cells in cell cycle phase: G1,A549 cells; 25 nM,101%
same,% cells in cell cycle phase: G2/M,A549 cells; 25 nM,114%
same,% cells in cell cycle phase: S,A549 cells; 25 nM,94%
same,% cells in cell cycle phase: aneuploid,A549 cells; 25 nM,101%
same,% cells in cell cycle phase: subG1,A549 cells; 25 nM,62%
same,% cells in cell cycle phase: G1,A549 cells; 50 nM,114%
same,% cells in cell cycle phase: G2/M,A549 cells; 50 nM,122%
same,% cells in cell cycle phase: S,A549 cells; 50 nM,81%
same,% cells in cell cycle phase: aneuploid,A549 cells; 50 nM,132%
same,% cells in cell cycle phase: subG1,A549 cells; 50 nM,82%
same,% cells in cell cycle phase: G1,A549 cells; 100 nM,124%
same,% cells in cell cycle phase: G2/M,A549 cells; 100 nM,113%
same,% cells in cell cycle phase: S,A549 cells; 100 nM,75%
same,% cells in cell cycle phase: aneuploid,A549 cells; 100 nM,157%
same,% cells in cell cycle phase: subG1,A549 cells; 100 nM,130%
same,% cells in cell cycle phase: G1,A549 cells; 150 nM,117%
same,% cells in cell cycle phase: G2/M,A549 cells; 150 nM,145%
same,% cells in cell cycle phase: S,A549 cells; 150 nM,71%
same,% cells in cell cycle phase: aneuploid,A549 cells; 150 nM,184%
same,% cells in cell cycle phase: subG1,A549 cells; 150 nM,341%
same,% cells in cell cycle phase G1,T47Dp53 cells,103%
same,% cells in cell cycle phase G2/M,T47Dp53 cells,123%
same,% cells in cell cycle phase S,T47Dp53 cells,87%
same,% cells in cell cycle phase aneuploid,T47Dp53 cells,87%
same,% cells in cell cycle phase subG1,T47Dp53 cells,116%
ISIS 358779: uniform 2′-MOE PS; SEQ ID NO: 929; region flanking 3′ Drosha cleavage site of mir-21 pri-miRNA (antisense eG*eG*eT*e[5mC]*eA*eG*eA*eT*eG*eA*eA*eA*eG*eA*eT*eA*e[5mC]*e[5mC]*eA*eA) [uniform 2′-MOE PS; region flanking 3′ Drosha cleavage site of mir-21 pri-miRNA],levels of the mir-21 pri-miRNA molecule,mir-21 pri-miRNA,stimulate an increase in levels of the mir-21 pri-miRNA molecule; also recorded: stimulate the greatest increases in expression of the mir-21 pri-miRNA
same,"mir-21 pri-miRNA levels, dose response","mir-21 pri-miRNA; HeLa, 25, 50, 100 and 200 nM",dose-responsive induction of mir-21 pri-miRNA levels
ISIS 358780: uniform 2′-MOE PS; targets mir-21 pri-miRNA (antisense eA*eA*e[5mC]*eA*eT*eT*eG*eG*eA*eT*eA*eT*eG*eG*eA*eT*eG*eG*eT*e[5mC]),levels of the mir-21 pri-miRNA molecule,mir-21 pri-miRNA,stimulate an increase in levels of the mir-21 pri-miRNA molecule
ISIS 358784: uniform 2′-MOE PS; targets mir-21 pri-miRNA (antisense e[5mC]*eG*eA*e[5mC]*eA*eA*eG*eG*eT*eG*eG*eT*eA*e[5mC]*eA*eG*e[5mC]*e[5mC]*eA*eT),levels of the mir-21 pri-miRNA molecule,mir-21 pri-miRNA,stimulate an increase in levels of the mir-21 pri-miRNA molecule
ISIS 358785: uniform 2′-MOE PS; targets mir-21 pri-miRNA (antisense eG*eA*eA*eA*eG*eA*eT*eA*e[5mC]*e[5mC]*eA*eA*eA*eA*eT*eG*eT*e[5mC]*eA*eG),levels of the mir-21 pri-miRNA molecule,mir-21 pri-miRNA,stimulate an increase in levels of the mir-21 pri-miRNA molecule
